Data on two compounds can be found in US20200056220A1, “GENERATION OF DATA FOR USE WITH ANTIMICROBIALS” (GeneFluidics, Inc., priority 2018, published 2020).

Read-outs that look alike come from different tables or passages of the source.

The assay deals with E. coli. The following applies: for average current signal of the four sensors, base susceptibility test: 0 minutes susceptibility culture time, sample diluted to 5×10^5 CFU/mL, −250 mV; for average current signal of the four sensors, base susceptibility test / current of the 60 minute test sample: 0.4 μg antibiotic in 100 μL Mueller-Hinton broth. How it is done:
In an antimicrobial susceptibility testing phase, a local antibiogram can be used to identify antibiotics for treating the pathogen identified in Example 1. […] Susceptibility cultures can be started. […] A second susceptibility culture including imipenem can be generated by diluting a portion of the raw sample to 5×10^5 CFU/mL and distributing the result into a vial with a 0.4 μg of a lyophilized version of the imipenem and 100 μL of culture media (Mueller-Hinton broth).
The imipenem susceptibility test sample can be used to generate an imipenem test sample shortly after the imipenem susceptibility culture was started. The Proteus automated system can begin to prepare a test sample from the imipenem susceptibility test sample by transferring 30 μL of the imipenem susceptibility test sample to a microcentrifuge vial in the machine. Then, the Proteus automated system can add 12 μL of 1M NaOH to the 30 μL sample. This sample can be incubated at room temperature for 2 minutes. The Proteus system can then add 8 μL of 1M HCl. Ten microliters of the result can be placed on each of 4 sensors of the 16 available on the GeneFluidics, Inc. 16X EC chip. This chip can be incubated in the Proteus machine for 11 minutes at 43° C. After completion of this incubation, the chip can be washed and dried by Proteus. Ten microliters of 0.5 U/mL anti-fluorescein horseradish peroxidase (HRP) Fab fragments (Roche; diluted in 1.0% casein in 1 M phosphate-buffered saline, pH 7.4) can be injected into the sensor chambers and incubated for 2 minutes at 25° C. The final reagent addition can be 40 μL of 3,3′,5,5′-tetramethylbenzidine (TMB)-H2O2 solution (K-Blue Low Activity TMB Substrate; Neogen, Lexington Ky.) and incubated for 30 seconds to provide the imipenem test sample.
Then, the Proteus automated system can add 12 μL of 1M NaOH to the 30 μL sample. This sample can be incubated at room temperature for 2 minutes. The Proteus system can then add 8 μL of 1M HCl. Ten microliters of the result can be placed on each of 4 sensors of the 16 available on the GeneFluidics, Inc. 16X EC chip. This chip can be incubated in the Proteus machine for 11 minutes at 43° C. After completion of this incubation, the chip can be washed and dried by Proteus. Ten microliters of 0.5 U/mL anti-fluorescein horseradish peroxidase (HRP) Fab fragments (Roche; diluted in 1.0% casein in 1 M phosphate-buffered saline, pH 7.4) can be injected into the sensor chambers and incubated for 2 minutes at 25° C.
The test samples were tested for concentration using a test that served as the base susceptibility test or the zero susceptibility culture time test. For instance, a Helios potentiostat from GeneFluidics, Inc. was connected to the electrodes of the sensor chips and a potential of −250 mV was applied across the electrodes for one minute. During this time, the current generated by the electrochemical reaction was measured by the potentiostat. The average current measured in the final 10 seconds of the potentiostat reading constituted the final result of the assay.
The process that was used to prepare the test samples for the base susceptibility tests was to be used to generate test samples from each of the susceptibility cultures at 60 minutes, and 90 minutes. Each of the test samples were tested as described above.

The mark [1] stands for this setting: 60 minutes susceptibility culture time.

Consider `O=C(O)c1cn(C2CC2)c2cc(N3CCNCC3)c(F)cc2c1=O` [ciprofloxacin], for which the “average current signal of the four sensors, base susceptibility test” value amounted to 30 nA. The “reported result (resistant / susceptible to the concentration of antimicrobial in the culture)” value (0.4 μg antibiotic in 100 μL culture media, final report when culture was stopped) is on record as “susceptible”. For the same compound, under setting [1], the “increase over the current level from base susceptibility test” value (“increase over the current level” for short) was determined as 0% and the “current of the 60 minute test sample” value amounted to 30 nA. Besides, the “increase over the current level” value (90 minutes susceptibility culture time) worked out at 0%.
`C[C@@H](O)[C@H]1C(=O)N2C(C(=O)O)=C(SCCN=CN)C[C@H]12` [imipenem]: the “average current signal of the four sensors, base susceptibility test” value turned out to be 30 nA. In addition, under setting [1], the “increase over the current level” value is reported as 500% and the “current of the 60 minute test sample” value was 180 nA.
